# Where two headings read alike, the source gives them in different places.
# Tests used:
# [1] = tested on: primary human hepatocytes; conditions: primary human hepatocytes from three donors
# [2] = tested on: mitochondrial COXII DNA (mtDNA); test: Mitochondrial COXII DNA and ribosomal DNA by real time PCR, CEM; assay type: cell-based, human; conditions: human
# [3] = tested on: ribosomal DNA (rDNA); test: as above; assay type: cell-based, human; conditions: human
# [4] = tested on: ET replicon with NS5B S96T/N142T; test: microbe, parasite or virus in culture; assay type: cell-based, HCV
# [5] = tested on: mitochondrial COXII DNA (mtDNA); test: Mitochondrial COXII DNA and ribosomal DNA by real time PCR, HepG2; assay type: cell-based, human; conditions: human
# [6] = tested on: ribosomal DNA (rDNA); test: as above; assay type: cell-based, human; conditions: human
# [7] = tested on: HepG2 cells; test: Lactic acid production, HepG2; conditions: 7 days, normalised to rDNA
# [8] = tested on: Clone A wild type replicon; test: Cross resistance: Clone A wild type replicon, RT-PCR; assay type: cell-based, HCV; conditions: Hepatitis C virus, read-out: EC90 WT replicon
# [9] = 8-day MTS cytotoxicity assay, HepG2; assay type: cell-based, human; conditions: human
# [10] = tested on: CEM cells; test: Lactic acid production, CEM; conditions: 7 days, normalised to rDNA
# [11] = 8-day MTS cytotoxicity assay, CEM; assay type: cell-based, human; conditions: human
# [12] = 8-day MTS cytotoxicity assay, Huh7; assay type: cell-based, human; conditions: human
# [13] = 8-day MTS cytotoxicity assay, BxPC3; assay type: cell-based, human; conditions: human
# [14] = tested on: Clone A replicon with NS5B S282T; test: microbe, parasite or virus in culture; assay type: cell-based, HCV
# [15] = target: recombinant NS5B genotype 4a (Hepatitis C virus genotype 4a, UniProt O39929); test: NS5B polymerase assay, genotype 4a; assay type: biochemical, HCV
# [16] = tested on: S282T genotype 1b NS5B (Con1 strain); test: biochemical; parameters: species or system HCV; conditions: genotype 1b RdRp, 5 μM NTPs
# [17] = target: S282T genotype 1b NS5B (Con1 strain) (Hepatitis C virus genotype 1b, UniProt Q9WMX2, S2701T); test: biochemical; parameters: species or system HCV
# [18] = target: recombinant NS5B genotype 2a (JFH-1 strain) (Hepatitis C virus genotype 2a, UniProt Q99IB8); test: NS5B polymerase assay, genotype 2a; assay type: biochemical, HCV
# [19] = tested on: primary human hepatocytes; test: Metabolism of [3H]-PSI-353661 in primary human hepatocytes; assay type: in vitro ADME; conditions: for time to maximum intracellular concentration: continuous exposure to 5 μM [3H]-PSI-353661
# [20] = target: recombinant HCV NS5B genotype 1b (Con1 strain), wild-type (Hepatitis C virus genotype 1b, UniProt Q9WMX2); test: NS5B polymerase assay, genotype 1b wild-type; assay type: biochemical
# [21] = target: recombinant NS5B genotype 3a (Hepatitis C virus genotype 3a, UniProt Q81258); test: NS5B polymerase assay, genotype 3a; assay type: biochemical, HCV
# [22] = target: rabbit muscle PK (Oryctolagus cuniculus, UniProt P11974); test: Phosphorylation by pyruvate kinase; assay type: biochemical; conditions: kinetic parameters unable to be determined (Km too high)
# [23] = target: 3-phosphoglycerate kinase (3-PGK) (Saccharomyces cerevisiae, UniProt P00560); test: Phosphorylation by 3-phosphoglycerate kinase; assay type: biochemical, bakers yeast; conditions: kinetic parameters unable to be determined (Km too high)
# [24] = tested on: Human nucleoside diphosphate kinase (NDPK); test: NDPK-mediated phosphorylation, coupled assay; assay type: biochemical
# [25] = target: L-alanine dehydrogenase (Ala-DH) (Bacillus subtilis, UniProt Q08352)
# [26] = tested on: primary human hepatocytes
# [27] = Hepatitis C virus, read-out: EC90 Mutant replicon
# Sequence of rabbit muscle PK (P11974 whole entry): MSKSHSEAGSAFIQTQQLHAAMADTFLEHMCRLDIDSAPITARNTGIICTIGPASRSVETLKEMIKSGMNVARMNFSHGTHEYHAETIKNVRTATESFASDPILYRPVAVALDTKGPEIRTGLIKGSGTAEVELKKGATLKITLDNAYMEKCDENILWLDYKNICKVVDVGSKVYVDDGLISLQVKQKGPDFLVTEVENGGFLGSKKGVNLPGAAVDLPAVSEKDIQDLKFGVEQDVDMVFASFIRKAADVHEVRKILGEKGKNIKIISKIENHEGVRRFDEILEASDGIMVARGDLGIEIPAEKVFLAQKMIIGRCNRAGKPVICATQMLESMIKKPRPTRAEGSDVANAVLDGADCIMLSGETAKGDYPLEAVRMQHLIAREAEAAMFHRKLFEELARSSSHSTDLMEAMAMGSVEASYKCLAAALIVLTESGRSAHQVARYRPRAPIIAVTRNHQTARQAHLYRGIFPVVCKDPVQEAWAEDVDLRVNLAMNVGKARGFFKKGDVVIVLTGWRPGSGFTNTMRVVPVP
# Sequence of L-alanine dehydrogenase (Ala-DH) (Q08352 whole entry): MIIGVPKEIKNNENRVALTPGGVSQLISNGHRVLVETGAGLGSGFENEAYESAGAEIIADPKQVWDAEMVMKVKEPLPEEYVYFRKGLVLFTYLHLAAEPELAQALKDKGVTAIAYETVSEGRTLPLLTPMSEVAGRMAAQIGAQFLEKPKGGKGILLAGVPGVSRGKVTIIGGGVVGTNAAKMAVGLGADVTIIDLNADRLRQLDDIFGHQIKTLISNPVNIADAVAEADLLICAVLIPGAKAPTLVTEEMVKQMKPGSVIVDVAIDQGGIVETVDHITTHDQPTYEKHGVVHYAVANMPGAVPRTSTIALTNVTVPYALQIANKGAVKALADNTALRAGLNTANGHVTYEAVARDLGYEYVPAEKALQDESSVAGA
# Sequence of 3-phosphoglycerate kinase (3-PGK) (P00560 whole entry): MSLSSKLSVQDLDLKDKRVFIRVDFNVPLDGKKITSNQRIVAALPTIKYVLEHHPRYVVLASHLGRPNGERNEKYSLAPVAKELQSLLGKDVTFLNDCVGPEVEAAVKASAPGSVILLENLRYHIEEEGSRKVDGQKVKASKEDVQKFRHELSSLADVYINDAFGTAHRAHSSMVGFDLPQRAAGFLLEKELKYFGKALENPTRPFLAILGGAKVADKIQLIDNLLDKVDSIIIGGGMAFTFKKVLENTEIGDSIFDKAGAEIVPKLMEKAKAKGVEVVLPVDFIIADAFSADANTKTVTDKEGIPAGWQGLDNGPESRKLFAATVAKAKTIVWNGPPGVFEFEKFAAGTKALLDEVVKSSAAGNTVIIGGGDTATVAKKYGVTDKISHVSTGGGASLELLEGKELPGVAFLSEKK
structure (smiles),measurement,setting,value
"O=[N+]([O-])c1ccc(OP(=O)(O)Oc2ccc([N+](=O)[O-])cc2)cc1 [BNPP, bis(4-nitrophenyl)phosphate]",effect on formation of the triphosphate PSI-352666 from PSI-353661,[1],inhibited the formation of PSI-352666 in hepatocytes from three different donors in a dose-dependent manner
COc1nc(N)nc2c1ncn2[C@@H]1O[C@H](COP(=O)(N[C@@H](C)C(=O)OCC(C)(C)C)Oc2cccc3ccccc23)[C@@H](O)[C@@]1(C)O (some centres unmarked) [INX-08189],CC90 at 14 days,[2],16.9 ± 1.7 µM
same,CC90 at 14 days,[3],16.3 ± 4.1 µM
same,EC90,[4]; [27],0.0059 ± 0.0027 µM
same,EC90 fold change,[4]; S96T/N142T mutant EC90 normalised to wild-type,1.1
same,CC90 at 14 days,[5],0.97 ± 0.62 µM
same,CC90 at 14 days,[6],0.75 ± 0.27 µM
same,Lactic acid (Fold change from untreated cells),[7]; 0.1 μM,1.1 ± 0.21
same,Lactic acid (Fold change from untreated cells),[7]; 1.0 μM,3.1 ± 0.61
same,Lactic acid (Fold change from untreated cells),[7]; 10 μM,Toxic
same,Lactic acid (Fold change from untreated cells),[7]; 50 μM,Toxic.
same,EC90,[8],0.018 ± 0.001 µM
same,CC50 at 8 days,[9],2.23 ± 0.1 µM
same,Lactic acid (Fold change from untreated cells),[10]; 0.1 μM,1.4 ± 0.35
same,Lactic acid (Fold change from untreated cells),[10]; 1.0 μM,1.4 ± 0.69
same,Lactic acid (Fold change from untreated cells),[10]; 10 μM,1.5 ± 0.50
same,Lactic acid (Fold change from untreated cells),[10]; 50 μM,Toxic.
same,CC50 at 8 days,[11],15 ± 2 µM
same,CC50 at 8 days,[12],0.32 ± 0.03 µM
same,CC50 at 8 days,[13],2.81 ± 1.52 µM
same,EC90,[14]; [27],0.11 ± 0.004 µM
same,EC90 fold change,[14]; S282T mutant EC90 normalised to wild-type,6.1
"C[C@@]1(F)[C@H](O)[C@@H](COP(=O)(O)OP(=O)(O)OP(=O)(O)O)O[C@H]1n1cnc2c(=O)[nH]c(N)nc21 [PSI-352666, 2′-deoxy-2′-α-fluoro-2′-β-C-methylguanosine-5′-triphosphate]",IC50,[15],4.2 ± 0.8 µM
same,"fold difference in IC50, S282T mutant vs wild-type",[16],~2 fold
same,IC50,[17],9.2 ± 1.4 µM
same,IC50,[18],4.7 ± 0.6 µM
same,intracellular concentration,[19]; after 4 hours of exposure to PSI-353661,> 50 µM
same,time to maximum intracellular concentration,[19],about 4 hours
same,IC50,"[20]; IC50, genotype 1b NS5B, 1 μM NTPs",1 ± 0.2 µM
same,IC50,"[20]; IC50, wild-type genotype 1b RdRp, 5 μM NTPs",4 ± 1.1 µM
same,IC50,[21],1.3 ± 0.5 µM
"C[C@@]1(F)[C@H](O)[C@@H](COP(=O)(O)OP(=O)(O)O)O[C@H]1n1cnc2c(=O)[nH]c(N)nc21 [PSI-353579, 2′-deoxy-2′-α-fluoro-2′-β-C –methylguanosine-5′-diphosphate]",phosphorylation by PK,[22],Phosphorylation of PSI-353579 was also observed
same,phosphorylation by 3-PGK,[23],Phosphorylation of PSI-353579 was also observed
same,kcat (apparent),"[24]; 25 °C, PK contributed in the phosphorylation",44.6 ± 4.9 s⁻¹
same,Km,"[24]; read-out: Km (apparent), 25 °C, PK contributed in the phosphorylation",66.3 ± 2.2 µM
same,time to maximum intracellular concentration,[19],1 to 2 h
"C[C@H](N)C(=O)O [alanine, L-alanine]",Vmax,[25],0.0206 ± 0.0005 ΔA340/min
CCC[C@H](NC(=O)[C@@H]1[C@H]2CCC[C@H]2CN1C(=O)[C@@H](NC(=O)[C@@H](NC(=O)c1cnccn1)C1CCCCC1)C(C)(C)C)C(=O)C(=O)NC1CC1 [telaprevir],effect on formation of the triphosphate PSI-352666 from PSI-353661,[26],not inhibited by telaprevir in hepatocytes from two of the three donors
